Reference: patent publication US9957274B2, “Indane inhibitors of EED and methods of their use” (AbbVie Inc., priority 2016, dated 2018)
Like-named read-outs stand apart in the source and are kept apart here.

What was measured:
Pfeiffer cells = assay: CTG cell viability assay (CellTiter-Glo); type: cell-based; conditions: Homo sapiens, 240 h
Experimental: 1,000 cells were plated into each well of 96-well Corning CellBing cell culture plates and incubated overnight at 37° C. in a humidified CO2 incubator. […] The cell culture plates were then incubated for 10 more days. CTG cell viability assay was performed on the cell culture samples by using CellTiter-Glo® Luminescent Cell Viability Assay Kit (Promega).

EED = EED (Homo sapiens, UniProt O75530); assay: EED TR-FRET Binding Assay (modified LanthaScreen competition assay)
Sequence of EED (O75530 whole entry): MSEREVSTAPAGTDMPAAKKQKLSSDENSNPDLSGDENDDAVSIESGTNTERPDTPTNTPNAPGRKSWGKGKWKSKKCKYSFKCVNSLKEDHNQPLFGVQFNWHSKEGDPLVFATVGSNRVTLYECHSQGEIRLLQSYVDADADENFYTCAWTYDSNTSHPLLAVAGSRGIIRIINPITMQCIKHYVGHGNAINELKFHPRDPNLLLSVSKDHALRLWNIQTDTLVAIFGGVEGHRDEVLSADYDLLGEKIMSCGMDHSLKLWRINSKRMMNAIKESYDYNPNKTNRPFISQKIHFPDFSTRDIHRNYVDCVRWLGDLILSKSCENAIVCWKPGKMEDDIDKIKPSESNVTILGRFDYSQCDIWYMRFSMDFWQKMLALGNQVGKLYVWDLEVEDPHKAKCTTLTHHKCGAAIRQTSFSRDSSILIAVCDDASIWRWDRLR
Experimental: Compounds were tested in a modified LanthaScreen competition assay.
The following buffer was used to set up the binding reactions: 20 mM Tris-HCl pH 7.5, 200 mM NaCl, 0.01% Tween-20, 10 uM DTT (dithiothreitol), and 0.05% BSA (bovine serum albumin), with the DTT and BSA added fresh prior to initiating the binding assay. […] The reactions were then incubated for 1 hour at 25° C. in a humidified chamber prior to detection on the Perkin Elmer Envision plate reader using a Lanthascreen TR-FRET protocol.

[1] = test system: H3K27me3 in OCILY19 cells; assay: H3K27me3 AlphaLISA assay in OCILY19 cells; type: cell-based; conditions: Homo sapiens, OCI-LY19, 144 h, 6 days with compound, read-out: OCILY-19 IC50
Experimental: 5,000 cells were plated into each well of 96-well Corning CellBing cell culture plates and incubated overnight at 37° C. in a humidified CO2 incubator. […] The cell culture plates were then incubated for 6 more days. H3K27me3 AlphaLISA assay was performed on the cell culture samples by using AlphaLISAR® H3K27me3 Cellular Detection Kit (PerkinElmer) and 96-well white half-area plates (PerkinElmer).

[2] = Pfeiffer cells, 10 days with compound, CellTiter-Glo, read-out: Cell Proliferation IC50

Row | Compound | IC50 (EED) [nM] | IC50 [1] [nM] | IC50 (Pfeiffer cells; [2]) [µM] | IC50 (Pfeiffer cells; Pfeiffer, read-out: Cell Proliferation IC50 (uM)) [µM]
1 | CN(C)[C@H]1CN(C2CCc3cccc(F)c32)C[C@@H]1C1CCN(c2cnc(C(N)=O)cn2)CC1 (mixture of isomers) [Example 163, rac-5-{4-[(3S,4R)-4-(dimethylamino)-1-(7-fluoro-2,3-dihydro-1H-inden-1-yl)pyrrolidin-3-yl]piperidin-1-yl}pyrazine-2-carboxamide] | 0.638 | 583 | 0.271 | 
2 | CN(C)[C@H]1CN(C2CCc3cccc(F)c32)C[C@@H]1c1cn(C)c2c(C(=O)O)cccc12 (stereo partly drawn) [Example 79, 3-[(3S,4R)-4-(dimethylamino)-1-(7-fluoro-2,3-dihydro-1H-inden-1-yl)pyrrolidin-3-yl]-1-methyl-1H-indole-7-carboxylic acid] | 2.45 |  | 1.02 | 
3 | CC(=O)N1CCN(c2ccc([C@H]3CN([C@@H]4CCc5cccc(F)c54)C[C@@H]3N(C)C)cc2)CC1 [Example 46, 1-[4-(4-{(3S,4R)-4-(dimethylamino)-1-[(1R)-7-fluoro-2,3-dihydro-1H-inden-1-yl]pyrrolidin-3-yl}phenyl)piperazin-1-yl]ethan-1-one] | 3.36 |  |  | 1.01
4 | CN(C)[C@H]1CN(C2CCc3cccc(F)c32)C[C@@H]1c1cn(C)c2cc(C(=O)N3CCN(S(C)(=O)=O)CC3)ccc12 (mixture of isomers) [Example 122, rac-{3-[(3S,4R)-4-(dimethylamino)-1-(7-fluoro-2,3-dihydro-1H-inden-1-yl)pyrrolidin-3-yl]-1-methyl-1H-indol-6-yl}[4-(methanesulfonyl)piperazin-1-yl]methanone] | 2.88 |  | 0.556 | 
5 | CN(C)C1CN(C2CCc3cccc(F)c32)CC1c1cn(C)c2cc(C(=O)N3CCC(O)C3)ccc12 (racemic) [Example 111, rac-{3-[(3S,4R)-4-(dimethylamino)-1-(7-fluoro-2,3-dihydro-1H-inden-1-yl)pyrrolidin-3-yl]-1-methyl-1H-indol-6-yl}[(35)-3-hydroxypyrrolidin-1-yl]methanone] | 2.59 |  | 0.171 | 
6 | CN(C(=O)c1cccc2c([C@H]3CN(C4CCc5cccc(F)c54)C[C@@H]3N(C)C)cn(C)c12)C1CC(O)C1 (mixture of isomers) [Example 109, rac-3-[(3S,4R)-4-(dimethylamino)-1-(7-fluoro-2,3-dihydro-1H-inden-1-yl)pyrrolidin-3-yl]-N-(3-hydroxycyclobutyl)-N,1-dimethyl-1H-indole-7-carboxamide] | 1.6 |  | 0.141 | 
7 | CN(C)[C@H]1CN(C2CCc3cccc(F)c32)C[C@@H]1c1cn(C)c2cc(C(=O)N3C[C@H](O)[C@@H](O)C3)ccc12 (mixture of isomers) [Example 114, rac-[(3S,4S)-3,4-dihydroxypyrrolidin-1-yl]{3-[(3S,4R)-4-(dimethylamino)-1-(7-fluoro-2,3-dihydro-1H-inden-1-yl)pyrrolidin-3-yl]-1-methyl-1H-indol-6-yl}methanone] | 5.58 |  | 3.13 | 
8 | CN(C)[C@H]1CN(C2CCc3cccc(F)c32)C[C@@H]1c1cn(C)c2c(C(=O)NC3CCS(=O)(=O)C3)cccc12 (mixture of isomers) [Example 115, rac-3-[(3S,4R)-4-(dimethylamino)-1-(7-fluoro-2,3-dihydro-1H-inden-1-yl)pyrrolidin-3-yl]-N-(1,1-dioxo-1lambda~6~-thiolan-3-yl)-1-methyl-1H-indole-7-carboxamide] | 1.73 |  | 0.224 | 
9 | Cc1noc(-c2ccc([C@H]3CN(C4CCc5cccc(F)c54)C[C@@H]3N(C)C)cc2)n1 (mixture of isomers) [Example 67, rac-(3R,4S)-1-(7-fluoro-2,3-dihydro-1H-inden-1-yl)-N,N-dimethyl-4-[4-(3-methyl-1,2,4-oxadiazol-5-yl)phenyl]pyrrolidin-3-amine] | 3.06 |  | 1.63 | 
10 | CN(C)[C@H]1CN(C2CCc3cccc(F)c32)C[C@@H]1C1CCN(c2ccccc2)CC1 (mixture of isomers) [Example 146, rac-(3R,4S)-1-(7-fluoro-2,3-dihydro-1H-inden-1-yl)-N,N-dimethyl-4-(1-phenylpiperidin-4-yl)pyrrolidin-3-amine] | 4.58 |  | 2.9 | 
11 | CN(C)[C@@H]1CN(C2CCc3cccc(F)c32)C[C@H]1c1ccc(-c2cnn(CC(=O)N3CC(F)C3)c2)nc1 (mixture of isomers) [Example 153, rac-2-(4-{5-[(3R,4S)-4-(dimethylamino)-1-(7-fluoro-2,3-dihydro-1H-inden-1-yl)pyrrolidin-3-yl]pyridin-2-yl}-1H-pyrazol-1-yl)-1-(3-fluoroazetidin-1-yl)ethan-1-one] | 2.01 |  | 0.419 | 
12 | CN(C)[C@H]1CN(C2CCc3cccc(F)c32)C[C@@H]1c1cn(C)c2ccccc12 (stereo partly drawn) [Example 76, (3R,4S)-1-(7-fluoro-2,3-dihydro-1H-inden-1-yl)-N,N-dimethyl-4-(1-methyl-1H-indol-3-yl)pyrrolidin-3-amine] |  | 1340 | 1.9 | 
13 | CN(C)[C@H]1CN(C2CCc3cccc(F)c32)C[C@@H]1c1cn(C)c2c(C(=O)N3CC[C@H](O)C3)cccc12 (mixture of isomers) [Example 118, rac-{3-[(3S,4R)-4-(dimethylamino)-1-(7-fluoro-2,3-dihydro-1H-inden-1-yl)pyrrolidin-3-yl]-1-methyl-1H-indol-7-yl}[(3S)-3-hydroxypyrrolidin-1-yl]methanone] | 3.35 |  | 0.298 | 
14 | CN(C)[C@H]1CN(C2CCc3cccc(F)c32)C[C@@H]1c1cn(C)c2c(C(=O)N3CCN4CCNC(=O)C4C3)cccc12 (mixture of isomers) [Example 134, rac-8-{3-[(3S,4R)-4-(dimethylamino)-1-(7-fluoro-2,3-dihydro-1H-inden-1-yl)pyrrolidin-3-yl]-1-methyl-1H-indole-7-carbonyl}hexahydro-2H-pyrazino[1,2-a]pyrazin-1(6H)-one] | 2.5 |  | 0.833 | 
15 | CN(C)[C@H]1CN(C2CCc3cccc(F)c32)C[C@@H]1c1cn(C)c2c(C(=O)N3CCC[C@H]3CO)cccc12 (mixture of isomers) [Example 116, rac-{3-[(3S,4R)-4-(dimethylamino)-1-(7-fluoro-2,3-dihydro-1H-inden-1-yl)pyrrolidin-3-yl]-1-methyl-1H-indol-7-yl}[(2S)-2-(hydroxymethyl)pyrrolidin-1-yl]methanone] | 1.77 |  | 0.0996 | 

Second part, led by results:

Row | IC50 (EED) [nM] | IC50 [1] [nM] | Compound | IC50 (Pfeiffer cells; [2]) [µM] | IC50 (Pfeiffer cells; Pfeiffer, read-out: Cell Proliferation IC50 (uM)) [µM]
16 | 1.75 |  | CN(C)C(=O)N1CCN(C(=O)c2cccc3c([C@H]4CN(C5CCc6cccc(F)c65)C[C@@H]4N(C)C)cn(C)c23)CC1 (mixture of isomers) [Example 127, rac-4-{3-[(3S,4R)-4-(dimethylamino)-1-(7-fluoro-2,3-dihydro-1H-inden-1-yl)pyrrolidin-3-yl]-1-methyl-1H-indole-7-carbonyl}-N,N-dimethylpiperazine-1-carboxamide] | 0.335 | 
17 | 2.37 |  | Cc1nnc(-c2ccc([C@@H]3CN(C4CCc5cccc(F)c54)C[C@H]3N(C)C)cc2)o1 (mixture of isomers) [Example 68, rac-(3S,4R)-1-(7-fluoro-2,3-dihydro-1H-inden-1-yl)-N,N-dimethyl-4-[4-(5-methyl-1,3,4-oxadiazol-2-yl)phenyl]pyrrolidin-3-amine] | 0.491 | 
18 | 1.74 | 368 | CN(C)C(=O)c1cccc2c([C@H]3CN(C4CCc5cccc(F)c54)C[C@@H]3N(C)C)cn(C)c12 (mixture of isomers) [Example 101, rac-3-[(3S,4R)-4-(dimethylamino)-1-(7-fluoro-2,3-dihydro-1H-inden-1-yl)pyrrolidin-3-yl]-N,N,1-trimethyl-1H-indole-7-carboxamide] |  | 
19 | 2.68 |  | CN(C)[C@@H]1CN(C2CCc3cccc(F)c32)C[C@H]1c1ccc(-c2ncco2)cc1 (mixture of isomers) [Example 66, rac-(3S,4R)-1-(7-fluoro-2,3-dihydro-1H-inden-1-yl)-N,N-dimethyl-4-[4-(1,3-oxazol-2-yl)phenyl]pyrrolidin-3-amine] | 1.13 | 
20 | 1.37 |  | CN(CCO)C(=O)c1cccc2c([C@H]3CN(C4CCc5cccc(F)c54)C[C@@H]3N(C)C)cn(C)c12 (mixture of isomers) [Example 98, rac-3-[(3S,4R)-4-(dimethylamino)-1-(7-fluoro-2,3-dihydro-1H-inden-1-yl)pyrrolidin-3-yl]-N-(2-hydroxyethyl)-N,1-dimethyl-1H-indole-7-carboxamide] | 0.126 | 
21 | 9.44 |  | CN(C)[C@H]1CN(C2CCc3cccc(F)c32)C[C@@H]1c1cn(C)c2c(C(=O)O)cccc12 (mixture of isomers) [Example 80, rac-3-[(3S,4R)-4-(dimethylamino)-1-(7-fluoro-2,3-dihydro-1H-inden-1-yl)pyrrolidin-3-yl]-1-methyl-1H-indole-7-carboxylic acid] | 1.52 | 
22 | 2.7 |  | CN(C)[C@H]1CN(C2CCc3cc(F)cc(F)c32)C[C@@H]1c1cn(C)c2ccccc12 (mixture of isomers) [Example 95, rac-(3R,4S)-1-(5,7-difluoro-2,3-dihydro-1H-inden-1-yl)-N,N-dimethyl-4-(1-methyl-1H-indol-3-yl)pyrrolidin-3-amine] | 1.72 | 
23 | 6.8 |  | CN(C)[C@@H]1CN(C2CCc3cccc(F)c32)C[C@H]1c1ccc(C(N)=O)cc1 (mixture of isomers) [Example 35, rac-4-[(3R,4S)-4-(dimethylamino)-1-(7-fluoro-2,3-dihydro-1H-inden-1-yl)pyrrolidin-3-yl]benzamide] | > 10 | 
